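A five-concentration, 48-hour dose response in 96-well plates underlies each endpoint, interpolated linearly between surrounding concentrations. Here, GI50 denotes the concentration required for 50% inhibition of growth. TGI denotes the concentration required for complete inhibition of growth.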

What all share (assay): NCI tumour cell line growth inhibition, 48 h
Assay [1] concerns TK-10 renal.
For assay [2], the system named is NCI-H226 lung.
The subject of assay [3] is RXF 393 renal.
In assay [4] the test system is A498 renal.
In assay [5] the test system is SF-268 CNS.
Assay [6] has as its system CAKI-1 renal.
Assay [7] deals with M14 melanoma.
Assay [8] relates to SR leukemia.
Assay [9] relates to NCI-H23 lung.
Assay [10] relates to HCT-15 colon.

With `c1cc2c(cnc3cscc32)s1`, the TGI in assay [1], in assay [2], in assay [3], in assay [4], in [5] and in assay [6] was over 100 µM each time. For the same compound, the TGI in [7], in [8], in [9] and in assay [10] was over 100 µM in each case.

Take `NC(N)=N/N=C/c1c(-c2cc(Cl)sc2Cl)nc2n1CCS2`: the GI50 is 8.65 µM in [1]; 8.31 µM in [2]; 10.8 µM in assay [3]; 8.9 µM in assay [4]; 11.3 µM in assay [5]; 12.8 µM in assay [6]. In addition, the GI50 in assay [7] is 6.93 µM; in [8] it was 8.04 µM; in assay [9], 8.77 µM; in [10], 9 µM. The TGI in [1] was found to be 15.8 µM; in assay [2], 16.8 µM; in assay [3] it was 22.4 µM; in assay [4], 16.6 µM; in assay [5] it was 23.5 µM; in [6] it was 23.2 µM. In addition, the TGI in [7] stood at 14.3 µM; in assay [8], 20.7 µM; in assay [9], 16.7 µM; in assay [10], 16.6 µM.

In the case of `O=C1Cc2c(-c3ccccc3)cc(-c3cccc(Cl)c3)nc2-c2ccccc2N1`, the TGI was 3.62 µM in [1]; 17.7 µM in assay [2]; 6.28 µM in [3]; 15.7 µM in assay [4]; 14 µM in assay [5]; 5.06 µM in [6]. Moreover, the TGI was over 63.9 µM in assay [7], over 100 µM in assay [8], 16.8 µM in assay [9] and 17.6 µM in assay [10].

Turning to `CC1(C)C(=O)/C(=C\c2ccco2)C[C@]2(C)[C@H]3CC=C4[C@@H]5C[C@](C)(C(=O)O)CC[C@]5(C)CC[C@@]4(C)[C@]3(C)CC[C@@H]12`, the GI50 in [1] is 13.1 µM; in [2] it was 9.92 µM; in assay [3] it was 10.7 µM; in [4] it was 10.3 µM; in [5], 12.1 µM; in assay [6] it was 10.6 µM. In addition, the GI50 in assay [7] is 13.3 µM; in assay [8], 9.85 µM; in assay [9], 8.89 µM; in [10], 5.26 µM. Moreover, the TGI in assay [1] was 36.7 µM; in assay [2], 37 µM; in assay [3] it was 22.7 µM; in [4], 22.4 µM; in assay [5] it was 28.2 µM; in [6] it was 28.2 µM. For the same compound, the TGI was 35.1 µM in assay [7], over 100 µM in [8], 25.4 µM in assay [9] and 18.8 µM in assay [10].

Take `CC(SC1=CC(=O)c2c(O)ccc(O)c2C1=O)C(=O)O` (stereo not given): the TGI is over 82.2 µM in assay [1]; over 100 µM in assay [2]; over 64.4 µM in [3]; over 100 µM in assay [4]; over 75.1 µM in assay [5]; 72.2 µM in [6]. In addition, the TGI in assay [7] is over 75.8 µM; in assay [8] it was over 100 µM; in assay [9], over 90.4 µM; in [10] it was over 55.3 µM.

In the case of `CCc1ccc(C2=C(O)C(=O)C(c3ccc(CC)cc3)=C(O)C2=O)cc1`, the GI50 in [1] was 2.26 µM; in [2] it was 1.9 µM; in assay [3], 3.34 µM; in [4], 1.74 µM; in assay [5] it was 2.14 µM; in assay [6], 1.92 µM. Moreover, the GI50 in [7] is 1.74 µM; in [8], 1.91 µM; in assay [9], 1.96 µM; in assay [10] it was 2.23 µM. In addition, the TGI in [1] was found to be 8.61 µM; in assay [2], 7.34 µM; in assay [3] it was 12.8 µM; in assay [4], 5.36 µM; in assay [5] it was 6.44 µM; in assay [6] it was 5.27 µM. In addition, the TGI in assay [7] was determined as 4.54 µM; in [8] it was 5.07 µM; in assay [9], 5.23 µM; in assay [10] it was 7.5 µM.

For the compound `CCCc1ccc(N=Cc2cc(OC)c(OC)c(OC)c2)cc1`, the TGI in assay [1], in assay [2], in assay [3], in assay [4], in [5] and in assay [6] was over 100 µM in each case. Also, the TGI is over 100 µM in [7], over 100 µM in assay [8], over 100 µM in assay [9] and over 54.6 µM in [10].

For `CC1=CC[C@@H]2C(C)(C)[C@@H](O)CC[C@@]2(C)[C@@H]1COc1ccc2ccc(=O)oc2c1`, the GI50 was 12.5 µM in assay [1]; 4.28 µM in assay [2]; 13.2 µM in assay [3]; 0.905 µM in assay [4]; 6.5 µM in [5]; 4.11 µM in assay [6]. Besides, the GI50 in assay [7] was 7.2 µM; in [8], 7.92 µM; in assay [9], 10.8 µM; in [10] it was 3.6 µM. Moreover, the TGI in assay [1] stood at 26.4 µM; in [2], 19.8 µM; in [3], 35.3 µM; in assay [4] it was 19.9 µM; in [5], 26.3 µM; in [6], 20.9 µM. For the same compound, the TGI in assay [7] amounted to 21.3 µM; in assay [8], 42 µM; in assay [9], 33 µM; in assay [10], 15.8 µM.

As for `Nc1ccc2c(c1)[O][Sn]([c]1ccccc1)([c]1ccccc1)[O]C2=O`, the GI50 was 7.34 µM in assay [1]; 9.13 µM in [2]; 2.06 µM in assay [3]; 18 µM in assay [4]; 7.63 µM in assay [5]; 4.89 µM in [6]. For the same compound, the GI50 in assay [7] was 11.2 µM; in assay [8], 3.01 µM; in [9] it was 2.76 µM; in assay [10], 6.8 µM. Also, the TGI was found to be 15.6 µM in [1]; 16.7 µM in assay [2]; 6.09 µM in assay [3]; 31.9 µM in [4]; 21.2 µM in assay [5]; 10.5 µM in assay [6]. Besides, the TGI is 25.4 µM in assay [7], over 30.4 µM in assay [8], 8.58 µM in [9] and 17.9 µM in [10].

Source of the values: PubChem BioAssay (NCI).
